{
  "source": "patent US20060292158A1",
  "about": "“Method for the treatment of cancer using a novel pharmaceutical composition containing at least one dolastatin 10 derivative” (priority 2004, published 2006)",
  "key": {"[1]": {"tested_on": "KPL-4 human breast carcinoma xenograft", "assay": "Antitumor activity in KPL-4 orthotopic xenograft in athymic nude mice, combination with trastuzumab (Example 1)", "format": "in vivo", "conditions": "monotherapy 3, 4 or 6 mg/kg; one week after final injection; control 2.5% DMSO-saline plus 20 mg/kg human IgG", "description": "The KPL-4 human breast carcinoma cell line was kindly donated by Prof. Kurebayashi, Kawasaki Medical Center. The cells were cultured in Dulbecco's MEM (Sigma Chemical Co.) supplemented with 5% (v/v) fetal bovine serum (Roche Diagnostics).\nOne hundred forty (140) 5-week-old female athymic nude mice (BALB/c nu/nu) were purchased from Charles River Japan, Inc. (Yokohama, Japan). The mice were housed in an air-conditioned room (temperature 22±2° C., relative humidity 55±10%) under 12 h light/dark cycles. The mice were given sterilized CE-2 and tap water with 25μg/mL gentamycin ad libitum. […]\nThe in vivo evaluation procedure for anticancer drugs was based on the methods described by Plowman, et al. (1997) for xenograft models. […] The tumor volume and body weight of each mouse were measured twice a week. […] One week after the final injection, tumor growth inhibition (TGI) was calculated using the formula (1-T/C)×100 (%), where T (treated group) and C (control group) represent the mean tumor volume change. ED50 values were calculated from values of tumor growth inhibition on day 21 using the XL fit program. […]\nPackaged software (SAS preclinical package version 5.0,SAS Institute Japan, Ltd.) was used for the statistical analysis. […] ED50s were calculated from values of tumor growth inhibition percentage using XL fit program #509 (MS Excel Add […], ID Business Solutions Ltd.)"}, "[2]": {"tested_on": "HT-29 human colorectal adenocarcinoma xenograft", "format": "in vivo", "conditions": "day 31", "description": "The HT-29 human colorectal adenocarcinoma cell line was purchased from American Type Culture Collection (Rockville, MD, U.S.A.). The cells were cultured in McCoy's 5a medium (Sigma-Aldrich Corporation, MO, U.S.A.) supplemented with 10% (v/v) fetal bovine serum (Roche Diagnostics KK, Tokyo, Japan).\nSixty of 5-week-old male athymic nude mice (BALB/c nu/nu) were purchased from Charles River Japan, Inc. (Yokohama, Japan). All mice were kept for 9 days in the animal facility of Kamakura Research Laboratories of Chugai Pharmaceutical Co., Ltd. before subjection to the experiment.\nCapecitabine was dissolved by the 40 milli mol/L citrate buffered-5% Gum arabic solution (pH 6.0; Chugai Pharmaceutical Co., Ltd.).\nThe in vivo evaluation procedure for anticancer drugs was based on the methods described by Plowman, et al. (1997) for xenograft models. See, “Anticancer Drug Development Guide: Preclinical Screening, Clinical Trials, and Approval, Teicher B (ed) pp. 101-125, specifically Chap. 6, “Human Tumor Xenograft Models in NCI Drug Development”, hereby incorporated by reference. A single cell suspension of HT-29 (1.1×10^7 cells per mouse) was inoculated subcutaneously into the right flank of each mouse. The tumor volume was estimated by using the equation ab^2/2, where a and b represent tumor length and width, respectively. Mice bearing tumors of between 172 and 282 mm^3 were selected on day 10 after tumor inoculation and were randomly divided into 7 groups, consisting of 6 mice each. Mean tumor volume and body weight of the selected mice were 217 mm^3 and 25.0 g respectively. Drug administration was initiated after mice were divided into groups. […] Capecitabine (359 mg/kg or 539 mg/kg) and its vehicle were administered orally. Tumor volume and body weight of each mouse were measured twice a week. […] Tumor growth inhibition was calculated using the equation (1-ΔT/ΔC)×100, where ΔT represents the difference in tumor volume from the initial treatment date of the treated group and ΔC represents the difference in tumor volume from the initial treatment date of the vehicle group."}},
  "note": "Read-outs that look alike come from different tables or passages of the source.",
  "data": [
    {"smiles": "CC[C@H](C)[C@@H]([C@@H](CC(=O)N1CCC[C@H]1[C@H](SC)[C@@H](C)C(=O)N(C)CCc1cccc(O)c1)OC)N(C)C(=O)[C@@H](NC(=O)[C@H](C(C)C)N(C)C)C(C)C", "note": "[compound of formula (I-A), N-[1-({1-sec-Butyl-4-[2-(2-{[2-(3-hydroxy-phenyl)-ethyl]-methyl-carbamoyl}-1-methylsulfanyl-propyl)-pyrrolidin-1-yl]-2-methoxy-4-oxo-butyl}-methyl-carbamoyl)-2-methyl-propyl]-2-dimethylamino-3-methyl-butyramide]", "values": [
      {"measurement": "volume of tumor in comparison with control", "setting": "[1]", "result": "decreased significantly"},
      {"measurement": "reduction of tumor growth", "setting": "[2]; 3 mg/kg (1/2 MTD) i.v. weekly x3", "result": 76, "unit": "%"},
      {"measurement": "reduction of tumor growth", "setting": "[2]; 4 mg/kg (2/3 MTD) i.v. weekly x3", "result": 101, "unit": "%"}
    ]}
  ]
}
